Reference: patent US20070032529A1, “Pyrazole compounds and their use as antidiabetes agents” (Japan Tobacco Inc., priority 2005, published 2007)
Where a name gives a salt, the structure may show the parent alone.

The compounds below were run against T1, recombinant human liver glycogen phosphorylase (Homo sapiens, UniProt P06737) (assay: Measuring liver glycogen phosphorylase activity (forward reaction system, NADPH absorbance at 340 nm)). Conditions: compound concentration 100 nmol (in parentheses).
T1 construct: made in house; host or cells: Sf9 insect cells (crude homogenate, diluted, used as the enzyme solution)
T1 sequence (P06737 1-847): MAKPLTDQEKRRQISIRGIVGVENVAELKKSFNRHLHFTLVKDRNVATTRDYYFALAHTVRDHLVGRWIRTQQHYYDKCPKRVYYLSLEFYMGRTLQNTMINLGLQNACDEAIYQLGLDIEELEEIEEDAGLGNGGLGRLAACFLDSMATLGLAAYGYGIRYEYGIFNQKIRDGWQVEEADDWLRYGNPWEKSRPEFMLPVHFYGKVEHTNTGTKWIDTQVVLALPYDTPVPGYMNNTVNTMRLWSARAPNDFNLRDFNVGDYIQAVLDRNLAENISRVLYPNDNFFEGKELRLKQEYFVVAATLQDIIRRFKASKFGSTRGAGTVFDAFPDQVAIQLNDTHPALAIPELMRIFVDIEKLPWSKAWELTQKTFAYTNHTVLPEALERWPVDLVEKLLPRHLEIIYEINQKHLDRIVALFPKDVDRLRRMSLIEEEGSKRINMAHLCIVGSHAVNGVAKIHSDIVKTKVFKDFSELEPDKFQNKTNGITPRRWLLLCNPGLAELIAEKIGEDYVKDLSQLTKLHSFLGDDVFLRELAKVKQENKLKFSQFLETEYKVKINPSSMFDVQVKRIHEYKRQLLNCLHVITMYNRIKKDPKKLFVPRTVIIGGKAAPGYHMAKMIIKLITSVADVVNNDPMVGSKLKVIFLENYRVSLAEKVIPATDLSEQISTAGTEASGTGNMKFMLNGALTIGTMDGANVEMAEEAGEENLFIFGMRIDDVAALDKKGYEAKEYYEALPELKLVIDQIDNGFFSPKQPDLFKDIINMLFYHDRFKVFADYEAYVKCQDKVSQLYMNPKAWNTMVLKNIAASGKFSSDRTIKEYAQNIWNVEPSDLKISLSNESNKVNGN
Type: biochemical
Summary of the method: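 Compounds in 1% DMSO; activity taken as blank-subtracted 340 nm absorbance change across 75 min at room temperature. Forward reaction: glucose-1-phosphate released from glycogen converted by coupling enzymes, yielding NADPH; enzyme from recombinant Sf9 homogenate, reaction containing glucose, pH 6.8. IC50 from two-point linear interpolation.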
For `O=C(Nc1cccc2ncccc12)c1cc(NC(=O)c2cc(F)c(F)cc2Cl)[nH]n1` [Example 5-36], the “inhibition rate (%) at a certain concentration” value (from here on “inhibition rate (%)”) was 17.8% (100). In the case of `CCOc1cc(C(C)(C)C(=O)O)cnc1NC(=O)c1cc(NC(=O)c2cc(F)c(F)cc2Cl)[nH]n1` [Example 1-151], the “inhibition rate (%)” value is reported as 13.3%(100). For `O=C(Nc1cccc2cnccc12)c1cc(NC(=O)c2cc(F)c(F)cc2Cl)[nH]n1` [Example 5-38], the “inhibition rate (%)” value was 15.2% (100). With `O=C(Nc1cccc2cccnc12)c1cc(NC(=O)c2cc(F)c(F)cc2Cl)[nH]n1` [Example 5-37] the “inhibition rate (%)” value was 22.3% (100).

Same assay, conditions: compound concentration 100 nmol (in parentheses); read-out: inhibition rate (%) at a certain concentration
With `O=C(Nc1cccc2ncccc12)c1cc(NC(=O)c2cc(F)c(F)cc2Cl)[nH]n1` [Example 1-145] the inhibition at 0.1 µM was 12.8%. For `C[C@@H](NC(=O)c1cc(NC(=O)c2cc(F)c(F)cc2Cl)[nH]n1)c1ccccc1` [Example 2-20], the inhibition at 0.1 µM was 43.1%. With `O=C(N[C@@H]1c2ccccc2C[C@@H]1O)c1cc(NC(=O)c2cc(F)c(F)cc2Cl)[nH]n1` [Example 2-30] the inhibition at 0.1 µM was 1.8%. `O=C(NCCc1ccncc1)c1cc(NC(=O)c2cc(F)c(F)cc2Cl)[nH]n1` [Example 1-141] showed an inhibition at 0.1 µM of 31.4%.

Same assay, conditions: compound concentration 300 nmol (in parentheses); read-out: inhibition rate (%) at a certain concentration
`COc1ccc(Cl)cc1C(=O)Nc1cc(C(=O)NCc2ccccc2)n[nH]1` [Example 4-17] was tested, and the inhibition at 0.3 µM was 1.1%. `CCC(CC)N(CCOC)C(=O)c1cc(NC(=O)c2cc(F)c(F)cc2Cl)[nH]n1` [Example 1-103] was tested, and the inhibition at 0.3 µM was 21.6%. For `CCCCN(C(=O)c1cc(NC(=O)c2cc(F)c(F)cc2Cl)[nH]n1)C1CCS(=O)(=O)CC1` [Example 1-114], the inhibition at 0.3 µM was 38.9%. Work on `CCN(CCN(C)C)C(=O)c1cc(NC(=O)c2cc(F)c(F)cc2Cl)[nH]n1` [Example 3-43] yielded an inhibition at 0.3 µM of 13.4%. In the case of `O=C(Nc1ccccc1N1CCOCC1)c1cc(NC(=O)c2cc(F)c(F)cc2Cl)[nH]n1` [Example 1-92], the inhibition at 0.3 µM is reported as 11.7%. `Cc1ccc(Cl)cc1C(=O)Nc1cc(C(=O)NCc2ccccc2)n[nH]1` [Example 4-13] showed an inhibition at 0.3 µM of 38%. In the case of `COCCN(Cc1ccccc1)C(=O)c1cc(NC(=O)c2cc(F)c(F)cc2Cl)[nH]n1` [Example 1-108], the inhibition at 0.3 µM is reported as 45.3%. `CN(C(=O)c1cc(NC(=O)c2cc(F)c(F)cc2Cl)[nH]n1)c1cccc(C(=O)O)c1` [Example 2-14] showed an inhibition at 0.3 µM of 37.5%.

Same assay, conditions: compound concentration 400 nmol (in parentheses); read-out: inhibition rate (%) at a certain concentration
In the case of `O=C(Nc1cc(C(=O)N2CCc3ccccc3C2)n[nH]1)c1cc(F)c(F)cc1Cl` [Example 3-12], the inhibition at 0.4 µM is reported as 50%.

Same assay, conditions: compound concentration 590 nmol (in parentheses); read-out: inhibition rate (%) at a certain concentration
Work on `CC(C)(NC(=O)c1cc(NC(=O)c2cc(F)c(F)cc2Cl)[nH]n1)c1ccccc1` [Example 4-10] yielded an inhibition at 0.59 µM of 50%.

Same assay, conditions: compound concentration 640 nmol (in parentheses); read-out: inhibition rate (%) at a certain concentration
Work on `O=C(Nc1ccccc1)c1cc(NC(=O)c2cc(F)c(F)cc2Cl)[nH]n1` [Example 3-3] yielded an inhibition at 0.64 µM of 50%.

Same assay, conditions: compound concentration 1000 nmol (in parentheses); read-out: inhibition rate (%) at a certain concentration
Work on `O=C(Nc1cc(C(=O)N(CCO)c2ccccc2)n[nH]1)c1cc(F)c(F)cc1Cl` [Example 1-77] yielded an inhibition at 1 µM of 43.8%. `O=C(Nc1cc(C(=O)N2CCC(C(=O)O)CC2)n[nH]1)c1cc(F)c(F)cc1Cl` [Example 3-8] showed an inhibition at 1 µM of 11.7%. `CCOC(=O)C1CCN(C(=O)c2cc(NC(=O)c3cc(F)c(F)cc3Cl)[nH]n2)CC1` [Example 3-6] was tested, and the inhibition at 1 µM was 42.5%.

Same assay, conditions: enzyme inhibitory activity with respect to liver glycogen phosphorylase; class symbols
`CC(=O)Nc1ccc(CNC(=O)c2cc(NC(=O)c3cc(F)c(F)cc3Cl)[nH]n2)cc1` [Example 2-18] gave an IC50 of less than 100 nM. Work on `CCCCCCc1nc(C)oc1CNC(=O)c1cc(NC(=O)c2cc(F)c(F)cc2Cl)[nH]n1` [Example 1-167] yielded an IC50 of less than 100 nM. `O=C(NCc1cc(F)ccc1F)c1cc(NC(=O)c2cc(F)c(F)cc2Cl)[nH]n1` [Example 1-20] showed an IC50 of less than 100 nM. With `Cc1nn(C)c(C)c1CNC(=O)c1cc(NC(=O)c2cc(F)c(F)cc2Cl)[nH]n1` [Example 1-55] the IC50 was less than 100 nM. `CCCCN(CCCC)C(=O)c1cc(NC(=O)c2cc(F)c(F)cc2Cl)[nH]n1` [Example 1-93] was tested, and the IC50 was less than 100 nM. Work on `O=C(NCc1ccc(N2CCS(=O)(=O)CC2)nc1)c1cc(NC(=O)c2cc(F)c(F)cc2Cl)[nH]n1` [Example 1-154] yielded an IC50 of less than 100 nM. Work on `Nc1cccc(CNC(=O)c2cc(NC(=O)c3cc(F)c(F)cc3Cl)[nH]n2)c1` [Example 3-30] yielded an IC50 of less than 100 nM. `O=C(NCc1cccc(F)c1)c1cc(NC(=O)c2cc(F)c(F)cc2Cl)[nH]n1` [Example 1-9] was tested, and the IC50 was less than 100 nM. `CCCCN(C(=O)c1cc(NC(=O)c2cc(F)c(F)cc2Cl)[nH]n1)C1CCN(S(C)(=O)=O)CC1` [Example 1-111] was tested, and the IC50 was 100 to 300 nM. Compound `O=C(NCc1ccc(C(F)(F)F)cc1)c1cc(NC(=O)c2cc(F)c(F)cc2Cl)[nH]n1` [Example 1-29] has an IC50 of less than 100 nM. Compound `Cc1nn(-c2ccccc2)nc1CNC(=O)c1cc(NC(=O)c2cc(F)c(F)cc2Cl)[nH]n1` [Example 1-61] has an IC50 of less than 100 nM. `O=C(NCc1cc(Br)c(Br)s1)c1cc(NC(=O)c2cc(F)c(F)cc2Cl)[nH]n1` [Example 1-155] was tested, and the IC50 was less than 100 nM. In the case of `O=C(NN1CCOCC1)c1ccc(CNC(=O)c2cc(NC(=O)c3cc(F)c(F)cc3Cl)[nH]n2)cc1` [Example 5-5], the IC50 is reported as less than 100 nM. `Cc1ccc(F)cc1C(=O)Nc1cc(C(=O)NCc2ccccc2)n[nH]1` [Example 4-12] was tested, and the IC50 was 100 to 300 nM. Work on `CCc1nc(C)c(CNC(=O)c2cc(NC(=O)c3cc(F)c(F)cc3Cl)[nH]n2)o1` [Example 1-158] yielded an IC50 of less than 100 nM. With `CCCCN(C(=O)c1cc(NC(=O)c2cc(F)c(F)cc2Cl)[nH]n1)C1CCSCC1` [Example 1-105] the IC50 was 100 to 300 nM. Compound `O=C(NCc1nnc[nH]1)c1cc(NC(=O)c2cc(F)c(F)cc2Cl)[nH]n1` [Example 2-2-1, 5-(2-chloro-4,5-difluoro-benzoylamino)-1H-pyrazole-3-carboxylic acid (4H-[1,2,4]triazol-3-ylmethyl)-amide dihydrochloride] has an IC50 of less than 100 nM. Work on `CC(C)CN(C(=O)c1cc(NC(=O)c2cc(F)c(F)cc2Cl)[nH]n1)c1ccccc1` [Example 4-24] yielded an IC50 of 100 to 300 nM. Work on `O=C(NCCN1CCOCC1)c1cccc(CNC(=O)c2cc(NC(=O)c3cc(F)c(F)cc3Cl)[nH]n2)c1` [Example 5-11] yielded an IC50 of less than 100 nM. For `CS(=O)(=O)Nc1ccc(CNC(=O)c2cc(NC(=O)c3cc(F)c(F)cc3Cl)[nH]n2)cc1` [Example 2-16], the IC50 was less than 100 nM. `O=C(NCc1ccc(-c2cccs2)s1)c1cc(NC(=O)c2cc(F)c(F)cc2Cl)[nH]n1` [Example 1-159] gave an IC50 of 100 to 300 nM. In the case of `CCN(Cc1ccncc1)C(=O)c1cc(NC(=O)c2cc(F)c(F)cc2Cl)[nH]n1` [Example 1-5], the IC50 is reported as less than 100 nM. Work on `Cn1cccc1CNC(=O)c1cc(NC(=O)c2cc(F)c(F)cc2Cl)[nH]n1` [Example 1-58] yielded an IC50 of less than 100 nM. Work on `CCNC(=O)c1cccc(CNC(=O)c2cc(NC(=O)c3cc(F)c(F)cc3Cl)[nH]n2)c1` [Example 1-121] yielded an IC50 of less than 100 nM. `CC(C)(C)OC(=O)NCc1ccnc(CNC(=O)c2cc(NC(=O)c3cc(F)c(F)cc3Cl)[nH]n2)c1` [Example 1-62] was tested, and the IC50 was less than 100 nM. For `O=C(NCc1ccc(F)c(F)c1)c1cc(NC(=O)c2cc(F)c(F)cc2Cl)[nH]n1` [Example 1-22], the IC50 was less than 100 nM. With `CN(C)c1ccccc1CNC(=O)c1cc(NC(=O)c2cc(F)c(F)cc2Cl)[nH]n1` [Example 1-10] the IC50 was 100 to 300 nM. Work on `CCCN(C(=O)c1cc(NC(=O)c2cc(F)c(F)cc2Cl)[nH]n1)C1CCN(C(=O)CCC(=O)O)CC1` [Example 1-125] yielded an IC50 of less than 100 nM. Work on `CCOCCCN(C(=O)c1cc(NC(=O)c2cc(F)c(F)cc2Cl)[nH]n1)C1CCCCC1` [Example 1-102] yielded an IC50 of less than 100 nM.

Same assay, conditions: figure in brackets (100); read-out: IC50: % value given with (100)
`O=C(NCc1cccnc1)c1cc(NC(=O)c2sc(Cl)c(Cl)c2Cl)[nH]n1` [Example 7-14] showed an inhibition at 0.1 µM of 4.6%. Compound `Nc1cc(F)c(F)cc1C(=O)Nc1cc(C(=O)NCc2cccnc2)n[nH]1` [Example 7-11] has an inhibition at 0.1 µM of 47.3%.

Same assay, conditions: human liver glycogen phosphorylase; class symbol
For `CC(=N)Nc1ccc(CNC(=O)c2cc(NC(=O)c3cc(F)c(F)cc3Cl)[nH]n2)cc1` [Example 6-32], the IC50 was less than 100 nM. Compound `Cc1cc(F)c(F)cc1C(=O)Nc1cc(C(=O)NCc2ccnc(-c3nnn[nH]3)c2)n[nH]1` [Example 7-16] has an IC50 of less than 100 nM. Compound `CS(=O)(=O)Nc1ccccc1CNC(=O)c1cc(NC(=O)c2cc(F)c(F)cc2Cl)[nH]n1` [Example 6-19] has an IC50 of less than 100 nM. Work on `N=C(Nc1cccc(CNC(=O)c2cc(NC(=O)c3cc(F)c(F)cc3Cl)[nH]n2)c1)c1ccccc1F` [Example 6-34] yielded an IC50 of less than 100 nM. With `Nc1cc(F)c(F)cc1CNC(=O)c1cc(NC(=O)c2cc(F)c(F)cc2Cl)[nH]n1` [Example 6-40] the IC50 was less than 100 nM. With `CCN(C=Nc1ccc(CNC(=O)c2cc(NC(=O)c3cc(F)c(F)cc3Cl)[nH]n2)cc1)CC` [Example 6-29] the IC50 was less than 100 nM.
